Test results: patent US12281060B2, “Remodilins for airway remodeling and organ fibrosis” (The University of Chicago, priority 2019, dated 2025)
Entries after “also recorded” stand apart in the source; their conditions may differ. Each block holds one compound with its values, some of them ahead of it.

Experiments:
[1] = tested on: serum response factor (SRF); assay: Luciferase reporter assay of TGFβ-stimulated SRF activation; type: cell-based, human
Text: FIGS. 6A-6B. Remodilins inhibit myofibroblast transformation. Remodilin 4 inhibits TGFβ-stimulated serum response factor (SRF) activation (FIG. 6B) but not Smad signaling (FIG. 6A), as determined using luciferase reporter assays.
It is well-established that myofibroblast transformation (MFT) is a critical step in the development of pulmonafy fibrisos. […] Maintenance of Smad signaling can preserve other beneficial effects of TGFβ. As depicted in FIG. 7, four remodilins inhibited smooth muscle ACTA2 and fibronectin-1 (FN1) protein expression (markers of MFT) in dose-dependent fashion.

[2] = Plasma pharmacokinetics and tissue distribution (liver, lung, thyroid) after single oral doses; type: in vivo; conditions: after oral administration, 10 or 50 mg/kg; male C57Bl/6 mice
Method: Studies were performed to characterize plasma pharmacokinetics (PK) and tissue distribution (liver, lung, thyroid) of 5 potential lead candidates in male C57Bl/6 mice receiving single oral doses of 10 mg/kg or 50 mg/kg.

HDM-treated Balb/c mice [3] = assay: HDM-induced airway constrictor hyperresponsiveness, methacholine challenge; type: in vivo; conditions: 12.5 mg/kg BID IP; HDM model, female Balb/c mice; vs 20% Solutol vehicle
Method: (§1) FIGS. 4A-4B. Effect of remodilin treatment (remodilin 83, 12.5 mg/kg BID IP) on airway constrictor hyperresponsiveness and remodeling induced by house dust mite (HDM) exposure in female Balb/c mice. FIG. 4A Airway constrictor hyperresponsiveness methacholine dose-response curves for mice treated with remodilin 83 or 20% Solutol (vehicle).
A mouse model of acute allergic asthma was used in which mice were sensitized with house dust mite (HDM) extracts. […] As depicted in FIGS. 1A and 1B, male and female Balb/c mice treated with HDM were subjected to methacholine challenge. […] The area under the curve increased by at least 3.6-fold in each sex.
(§2) As depicted in FIG. 4A, twice-daily intraperitoneal administration of remodilins (12.5 mg/kg) was evaluated.

HDM-treated Balb/c mice [4] = assay: HDM-induced airway remodeling, MYH11 immunostain-positive airway smooth muscle area; type: in vivo; conditions: 12.5 mg/kg BID IP, HDM model, female Balb/c mice, large airways, vs 20% Solutol vehicle
Method: as §1
Furthermore, three-way analysis of variance (Ctrl vs HDM, Female vs Male, Small vs Large Airways) confirmed that the HDM influence on airway remodeling was significant at P=0.0007.
as §2

bleomycin-treated mice = assay: Bleomycin-induced lung fibrosis in mice; type: in vivo; conditions: 25 mg/kg QD IP
Method: FIGS. 8A-8B. Treatment with remodilin 83 (25 mg/kg QD IP) reduced pulmonary fibrosis in bleomycin-treated mice. Remodilin or vehicle (DMSO) was given on days 7-21 after i.t. bleomycin (1 U/kg). Both lung hydroxyproline (FIG. 8A) and collagen levels (FIG. 8B) were lower in remodilin 83-treated mice than in control mice.
Both lung hydroxyproline (FIG. 8A) and collagen levels (FIG. 8B) were lower in remodilin 83-treated mice (systemically-administered) than in control mice.

[5] = days 7-21 after i.t. bleomycin, vs control mice

TGFβ-stimulated serum response factor (SRF) activation [1]: inhibits
SMILES: CCN(CC)S(=O)(=O)c1ccc(NC(=O)c2ccc(OC)c(I)c2)cc1 [remodilin 4, N-(4-(N,N-diethylsulfamoyl)phenyl)-3-iodo-4-methoxybenzamide]

accumulation in lung vs. other tissues (liver, thyroid) or plasma [2]: selective accumulation
SMILES: COc1ccc(C(=O)Nc2ccc(S(=O)(=O)N3CCCCC3C)cc2)cc1I (stereo not drawn) [remodilin 39, 3-Iodo-4-methoxy-N-(4-((2-methylpiperidin-1-yl)sulfonyl)phenyl) benzamide]

SMILES: CC1CN(S(=O)(=O)c2ccc(NC(=O)c3ccc(Br)c(I)c3)cc2)CCN1 (stereo not drawn) [remodilin 83, 4-Bromo-3-iodo-N-(4-((3-methylpiperazin-1-yl)sulfonyl)phenyl)benzamide]
development of airway constrictor hyperresponsiveness (HDM-treated Balb/c mice [3]): significantly blunted
accumulation in lung vs. other tissues (liver, thyroid) or plasma [2]: higher concentrations in lung; also recorded: selective accumulation
MYH11 immunostain-positive airway smooth muscle area normalized to epithelial length (HDM-treated Balb/c mice [4]): significantly lower
MYH11 immunostain-positive airway smooth muscle area normalized to epithelial length (HDM-treated Balb/c mice [4]; listed as Remodilin 83): significantly lowered
pulmonary fibrosis (bleomycin-induced) (bleomycin-treated mice; days 7-21 after i.t. bleomycin 1 U/kg, vs DMSO vehicle): inhibitory activity; also recorded: reduced
lung collagen levels (bleomycin-treated mice; [5]): lower
lung hydroxyproline (bleomycin-treated mice; [5]): lower

SMILES: COc1ccc(C(=O)Nc2ccc(S(=O)(=O)N3CCNCC3)cc2)cc1I [remodilin 61, 3-Iodo-4-methoxy-N-(4-(piperazin-1-ylsulfonyl)phenyl)benzamide]
accumulation in lung vs. other tissues (liver, thyroid) or plasma [2]: higher concentrations in lung; also recorded: selective accumulation

accumulation in lung vs. other tissues (liver, thyroid) or plasma [2]: selective accumulation
SMILES: O=C(Nc1ccc(S(=O)(=O)N2CCCC2)cc1)c1ccc(Br)c(I)c1 [remodilin 50, 4-Bromo-3-iodo-N-(4-(pyrrolidin-1-ylsulfonyl)phenyl)benzamide]

SMILES: CC1CNCCN1S(=O)(=O)c1ccc(NC(=O)c2ccc(Br)c(I)c2)cc1 (stereo not drawn) [remodilin 86, 4-Bromo-3-iodo-N-(4-((2-methylpiperazin-1-yl)sulfonyl)phenyl)benzamide]
accumulation in lung vs. other tissues (liver, thyroid) or plasma [2]: higher concentrations in lung; also recorded: selective accumulation
